Experimental data as given in patent US9758472B2, “Non-lactone carbocyclic and heterocyclic antagonists and agonists of bacterial quorum sensing” (WISCONSIN ALUMNI RESEARCH FOUNDATION, priority 2009, dated 2017).

Assays:
LasR [1] = molecular target: T1, LasR (Pseudomonas aeruginosa, UniProt P25084); experiment: LasR antagonism assay, E. coli DH5α (pJN105L+pSC11) β-galactosidase reporter strain; format: cell-based, P. aeruginosa; details: E. coli DH5α (pJN105L+pSC11); for IC50: dose response; for Antagonist, percent inhibition compared to a positive control: initial library (FIG. 4), negative values indicate agonist properties
T1 construct: expressed in transfected cells; host or cells: Escherichia coli DH5α (pJN105L+pSC11)
Protocol: (§1) FIG. 5B is a bar graph showing the results of […] assay for initial heterocyclic and carbocyclic library (Scheme 1) shown as a percent of the positive control. Antagonism positive control (Pos)=activity of the reporter strain in the absence of synthetic ligand at the EC50 value for the strain. […] Negative control (Neg)=bacteria in the absence of natural and synthetic ligand. Error bars=standard deviation of the mean of triplicate samples.
(§2) The initial library was tested for LasR agonistic and antagonistic activity in two strains: Escherichia coli DH5α (pJN105L+pSC11) [Lee, J. H.; Lequette, Y.; Greenberg, E. P., Activity of purified QscR, a Pseudomonas aeruginosa orphan quorum-sensing transcription factor. Mol. Microbiol. 2006, 59 (2), 602-609] and P. aeruginosa PA01 MW1 (pUM15) [Muh, U.; Schuster, M.; Heim, R.; Singh, A.; Olson, E.; Greenberg, E. P., Novel Pseudomonas aeruginosa Quorum-Sensing Inhibitors Identified in an Ultra-High-Throughput Screen. Antimicrob. Agents Chemother. 2006, 50, 3674-3679] (FIGS. 5A and 5B). Both strains allow for synthetic autoinducer mimic evaluation and contain a reporter gene that allows for a quantitative readout of QS activity. DH5α (pJN105L+pSC11) is a heterologous β-galactosidase E. coli reporter strain containing a plasmid for the P. aeruginosa LasR gene. The PA01 MW1 (pUM15) strain uses the natural P. aeruginosa background containing a LasI deletion and the gene for yellow fluorescent protein (YFP) under the control of the LasI promoter to evaluate the LasI/R activity. Since the PA01 MW1 (pUM15) strain evaluates LasR in the natural P. aeruginosa background, in contrast to the heterologous E. coli strain, an improved idea of the interplay between the isolated LasI/R system and the combination of LasI/R with other QS subsystems such as QscR can be determined. Furthermore, additional nuances of the natural system such as compound permeability are incorporated in assays using the PA01 MW1 (pUM15) strain.

LasR [2] = molecular target: T1, LasR; experiment: LasR agonism assay, E. coli DH5α (pJN105L+pSC11) β-galactosidase reporter strain; format: cell-based, P. aeruginosa; details: for Act %: thiolactone libraries, E. coli, synthetic ligands tested at 10 μM; for Agonist, percent of activation compared to the positive control: initial library (FIG. 4); for Agonist, percent of activation compared to the positive control / LasR agonism, in words / EC50: E. coli DH5α (pJN105L+pSC11); for EC50: dose response
Protocol: (§3) The black bars are DH5α (pJN105L+pSC11) and the grey bars are PA01 MW1 (pUM15). Agonism positive control=activity of the reporter strain at full turn on for the strain. […] Negative control (Neg)=bacteria in the absence of natural and synthetic ligand. Error bars=standard deviation of the mean of triplicate samples.
as §2

LasR [3] = molecular target: T1, LasR; experiment: LasR agonism assay, P. aeruginosa PA01 MW1 (pUM15) YFP reporter strain; format: cell-based; details: for Act %: thiolactone libraries, P. aeruginosa, synthetic ligands tested at 10 μM; for Agonist, percent of activation compared to the positive control: initial library (FIG. 4), P. aeruginosa PA01 MW1; for EC50: dose response
Protocol: as §3, §2

LasR [4] = molecular target: T1, LasR; experiment: LasR antagonism assay, E. coli DH5α (pJN105L+pSC11) β-galactosidase reporter strain; format: cell-based, P. aeruginosa; details: thiolactone libraries, synthetic ligands tested at 10 μM
TraR = TraR (Agrobacterium tumefaciens, UniProt P33905); experiment: cell-based; format: cell-based; set-up: and Agrobacterium tumefaciens WCF (pCF372); endogenous in cells; host or cells: Agrobacterium tumefaciens WCF (pCF372); details: for Inhib %: thiolactone libraries, A. tumefaciens, synthetic ligands tested at 10 μM; for IC50: dose response
Protocol: (§4) The initial library was also tested in Vibrio fischeri ESI 114 (Δ-LuxI) [Lupp, C.; Urbanowski, M.; Greenberg, E. P.; Ruby, E. G., The Vibrio fischeri quorum-sensing systems ain and lux sequentially induce luminescence gene expression and are important for persistence in the squid host. Mol. Microbiol. 2003, 50 (1), 319-331] and Agrobacterium tumefaciens WCF (pCF372). […] J. Bacteriol. 1998, 180 (20), 5398-5405.] […] [Geske, G. D.; O'Neill, J. C.; Miller, D. M.; Mattmann, M. E.; Blackwell, H. E., Modulation of Bacterial Quorum Sensing: Systematic Evaluation of N-Acylated Homoserine Lactones in Multiple Species and New Insights into Their Mechanism of Action. J. Am. Chem. Soc. 2007, 129, 13613-13625.]

LuxR [5] = molecular target: T2, LuxR (Aliivibrio fischeri, UniProt P35327); experiment: cell-based; format: cell-based, Vibrio fischeri; set-up: The initial library was also tested in Vibrio fischeri ESI 114 (Δ-LuxI); endogenous in cells; host or cells: Vibrio fischeri ESI 114 (Δ-LuxI); details: for IC50: dose response; for IC50 / Antagonist, percent inhibition compared to a positive control: V. fischeri ESI 114 (Δ-LuxI); for Inhib %: thiolactone libraries, V. fischeri, synthetic ligands tested at 10 μM; for Antagonism, in words: V. fischeri strain; for Antagonist, percent inhibition compared to a positive control: initial library (FIG. 4)
Protocol: as §4

LasR [6] = molecular target: T1, LasR; experiment: LasR antagonism assay, P. aeruginosa PA01 MW1 (pUM15) YFP reporter strain; format: cell-based; details: for Antagonist, percent inhibition compared to a positive control: initial library (FIG. 4), P. aeruginosa PA01 MW1, negative values indicate agonist properties; for LasR antagonism, in words: P. aeruginosa PA01 MW1 (pUM15), natural background
Protocol: as §1, §2

LuxR [7] = molecular target: T2, LuxR; details: V. fischeri ESI 114 (Δ-LuxI); for Agonist, percent of activation compared to the positive control: initial library (FIG. 4)
Protocol: as §4

T1 sequence (P25084 whole entry): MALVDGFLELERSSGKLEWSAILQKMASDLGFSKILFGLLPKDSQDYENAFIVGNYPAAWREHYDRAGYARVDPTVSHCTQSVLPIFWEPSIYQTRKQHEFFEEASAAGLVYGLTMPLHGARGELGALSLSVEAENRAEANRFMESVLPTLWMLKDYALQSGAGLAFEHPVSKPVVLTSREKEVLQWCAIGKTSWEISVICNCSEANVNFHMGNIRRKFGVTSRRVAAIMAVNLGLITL
TraR, sequence (P33905 whole entry): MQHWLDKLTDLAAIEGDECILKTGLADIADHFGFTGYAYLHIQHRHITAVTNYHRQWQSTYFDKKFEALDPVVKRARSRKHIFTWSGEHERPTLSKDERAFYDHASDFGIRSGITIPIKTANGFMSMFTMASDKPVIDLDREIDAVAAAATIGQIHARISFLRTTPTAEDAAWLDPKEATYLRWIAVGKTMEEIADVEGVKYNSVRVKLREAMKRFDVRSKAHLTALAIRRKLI
T2 sequence (P35327 whole entry): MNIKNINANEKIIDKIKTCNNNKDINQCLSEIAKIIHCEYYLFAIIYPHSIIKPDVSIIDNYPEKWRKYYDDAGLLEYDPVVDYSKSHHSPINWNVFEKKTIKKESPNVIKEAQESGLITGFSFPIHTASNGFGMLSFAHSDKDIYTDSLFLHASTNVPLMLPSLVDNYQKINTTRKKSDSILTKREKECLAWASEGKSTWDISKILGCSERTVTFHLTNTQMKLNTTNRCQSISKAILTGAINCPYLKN

Compound | Act % (LasR [2]) [%] | Act % (LasR [3]) [%] | Inhib % (LasR [4]) [%] | Inhib % (TraR) [%] | Inhib % (LuxR [5]) [%] | further results
CCCCCC(=O)N[C@H]1CCSC1=O [Compound 28E] | 1 | 20 | 59 | −78 | 93 | IC50 (LasR [1]): 1100 nM; IC50 (LuxR [5]): 840 nM
CCCCCCCCCC(=O)CC(=O)NCc1ccco1 [Compound 10] |  |  |  |  |  | Antagonist, percent inhibition compared to a positive control (LasR [6]): 25.5%; Agonist, percent of activation compared to the positive control (LuxR [7]): 3.3%
O=C(Cc1ccc(Br)cc1)NC1CCSC1=O (racemic) [Compound 18] | 2 | 8 | 80 | −60 | 97 | 
O=C(Cc1cccc([N+](=O)[O-])c1)NC1CCSC1=O (racemic) [Compound 19] | 82 | 5 | −13 | 33 | 19 | 
O=C(Cc1ccc(-c2ccccc2)cc1)N[C@H]1CCSC1=O [Compound 23E] | 0 | 1 | 45 | 26 | 85 | IC50 (LasR [1]): 2900 nM; IC50 (LuxR [5]): 350 nM
CCCCCCC(=O)N[C@H]1CCSC1=O [Compound 27E] | 8 | 0 | 78 | 78 | 78 | IC50 (LasR [1]): 790 nM; IC50 (TraR; A. tumefaciens WCF (pCF372)): 10000 nM; IC50 (LuxR [5]): 310 nM
COc1ccc(CC(=O)NC2CCSC2=O)cc1 (racemic) [Compound 20] | 1 | 7 | 51 | −107 | 70 | 
O=C(CCc1c[nH]c2ccccc12)NC1CCSC1=O (racemic) [Compound 22] | 4 | 10 | 16 | −80 | 68 | 
CCCCCCCCCC(=O)CC(=O)NC1CCSC1=O (stereo not shown) [Compound 1] | 94 | 88 | −40 | 92 | 99 | Agonist, percent of activation compared to the positive control (LasR [2]): 94%; Agonist, percent of activation compared to the positive control (LasR [3]): 88%; Antagonism, in words (TraR; A. tumefaciens strain): good antagonist; Antagonist, percent inhibition compared to a positive control (TraR; initial library (FIG. 4), A. tumefaciens WCF (pCF372), negative values indicate agonist properties): 65%; Antagonism, in words (LuxR [5]): good antagonist; Antagonist, percent inhibition compared to a positive control (LuxR [5]): 92%
COc1ccc(CC(=O)N[C@H]2CCSC2=O)cc1 [Compound 20E] | 0 | 4 | 48 | −24 | 59 | IC50 (LasR [1]): 7200 nM
CCCC(=O)N[C@H]1CCSC1=O [Compound 29E] | 4 | 22 | 17 | −70 | 42 | 
CCCCCCCCCC(=O)CC(=O)NCc1ccc(OC)cc1 [Compound 14] |  |  |  |  |  | Antagonist, percent inhibition compared to a positive control (LasR [1]): −67.7%; LasR agonism, in words (LasR [2]): strongly agonized; Agonist, percent of activation compared to the positive control (LasR [2]): 73.0%; LasR antagonism, in words (LasR [6]): slight antagonism; Antagonist, percent inhibition compared to a positive control (LasR [6]): 37.8%; Antagonist, percent inhibition compared to a positive control (LuxR [5]): 14.6%
CCCCCCCCCC(=O)CC(=O)NCc1ccccc1F [Compound 7] |  |  |  |  |  | Antagonist, percent inhibition compared to a positive control (LasR [1]): 38.8%; Agonist, percent of activation compared to the positive control (LuxR [7]): 3.1%
CCCCCCCCCCCC(=O)N[C@H]1CCSC1=O [Compound 25E] | 4 | 42 | −93 | 6 | 57 | LasR agonism, in words (LasR [2]): strong agonists; EC50 (LasR [2]): 1900 nM; EC50 (LasR [3]; P. aeruginosa PA01 MW1 (pUM15)): 21000 nM
CCCCCCCC(=O)N[C@H]1CCSC1=O [Compound 26E] | 85 | 0 | 64 | 99 | 80 | IC50 (LasR [1]): 140 nM; IC50 (TraR; A. tumefaciens WCF (pCF372)): 2800 nM; IC50 (LuxR [5]): 130 nM
O=C(Cc1cccc([N+](=O)[O-])c1)N[C@H]1CCSC1=O [Compound 19E] | 81 | 3 | −3 | 30 | 30 | EC50 (LasR [2]): 4100 nM; EC50 (LuxR [7]; dose response): 11000 nM
CCCC(=O)CC(=O)N[C@H]1CCSC1=O [Compound 30E] | 6 | 76 | −119 | 93 | 62 | EC50 (LasR [2]): 130 nM; EC50 (LasR [3]; P. aeruginosa PA01 MW1 (pUM15)): 13000 nM; IC50 (TraR; A. tumefaciens WCF (pCF372)): 3200 nM
CCCCCCCCCC(=O)CC(=O)Nc1ccccc1 [Compound 2] |  |  |  |  |  | LasR antagonism, in words (LasR [1]): antagonism capabilities; Antagonist, percent inhibition compared to a positive control (LasR [1]): 53.7%; LasR antagonism, in words (LasR [6]): antagonism capabilities; Antagonist, percent inhibition compared to a positive control (LasR [6]): 28.7%
O=C(Cc1ccccc1)N[C@H]1CCSC1=O [Compound 21E] | 3 | 17 | 61 | 13 | 30 | IC50 (LasR [1]): 2500 nM
O=C(Cc1ccccc1)NC1CCSC1=O (racemic) [Compound 21] | 2 | 2 | 65 | −22 | 34 | 
O=C(Cc1ccc(Br)cc1)N[C@H]1CCSC1=O [Compound 18E] | 8 | 5 | 68 | 25 | 91 | IC50 (LasR [1]): 400 nM; IC50 (LuxR [5]): 770 nM
O=C(Cc1ccc(-c2ccccc2)cc1)NC1CCSC1=O (racemic) [Compound 23] | 9 | 3 | 56 | 9 | 98 | 
CCCCCCCCCC(=O)CC(=O)NC1CCCC1 [Compound 3] |  |  |  |  |  | LasR agonism, in words (LasR [2]): agonist; Agonist, percent of activation compared to the positive control (LasR [2]): 83.5%; LasR agonism, in words (LasR [3]; P. aeruginosa PA01 MW1 (pUM15), natural background): agonist; Agonist, percent of activation compared to the positive control (LasR [3]): 54.2%; Antagonism, in words (LuxR [5]): modest antagonist; Antagonist, percent inhibition compared to a positive control (LuxR [5]): 89.4%
CCOC(=O)CNC(=O)CCc1cccc(I)c1 [Compound 34] |  |  |  |  |  | Antagonism, in words (LuxR [5]): excellent antagonistic activity
